Data taken from patent US20060258745A1, “Deramciclane-fumarate tablets” (EGIS GYOGYSZERGYAR RT., priority 2003, published 2006).

Experiments:
[1] = Crushing strength of compressed pure deramciclane-fumarate powder; assay type: physicochemical; conditions: 300 mg powder, die cavity of 10 mm diameter, eccentric press, compression force 5-40 kN
Source text: Due to the weak cohesion characteristics of deramciclane-fumarate on compression of the particles of the active ingredient acceptable tablet strength can not be obtained.

Water solubility = assay type: physicochemical

crushing strength of the tablets [1]: ≤ 10 N
water solubility (Water solubility): low water solubility
SMILES: CN(C)CCOC1(c2ccccc2)CC2CCC1(C)C2(C)C.O=C(O)/C=C/C(=O)O [deramciclane-fumarate, (1R,2S,4R)-(−)-2-dimethylaminoethoxy-2-phenyl-1,7,7-trimethyl-bicyclo[2.2.1]heptane-2-(E)-butenedioate (1:1)]
